In US20220331415A1, “IMMUNOACTIVE MICROPARTICLES AND USES THEREOF” (The Regents of the University of California, priority 2019, published 2022):

Key:
TGF-β receptor = details: TGF-β inhibitors; cited from earlier work
[1] = tested on: Treg formation (Foxp3+ T cells); assay: Inhibition of Treg formation: Foxp3 expression in naïve T cells co-cultured with microparticles, flow cytometry; assay type: cell-based; details: same concentration of TGF-β inhibitors, galunisertib compared with SB505124, after 4 days
Excerpt: FIG. 16 further describes TGF-β inhibitors galunisertib (LY2157299) and SB505124 (top). […] Naïve T cells were co-cultured with microparticles and flow cytometry is being used after 4 days to evaluate the intracellular Foxp3 expression.
Thus, in one embodiment, an inhibitor or blocker of TGF-β is included or incorporated into the microparticles of the invention. A TGF-β inhibitor (TGF-βi) such as a TGF-β receptor inhibitor may be used. Non-limiting examples include galinusertib (LY2157299) or SB505124. […] This TGFβ inhibitor used for further studies as described in FIGS. 16-20.
To efficiently stimulate the proliferation of cytotoxic T cells, the microparticles of the invention should suppress formation of regulatory T cells (Tregs) from CD4+ cells attracted to the microparticles. Sustained presence of TGF-β inhibitors can suppress Tregs formation. FIG. 15 and FIG. 16 depict two TGF-β inhibitors used here to show the suppression effect. […] Incorporation of β-cyclodextrin was used to increase the affinity and loading of Galunisertib to microparticles (FIG. 17). β-cyclodextrin was conjugated to Alginate or Alginate-Heparin polymers.

[2] = compared to IL-2, cited from earlier work

Row | Molecule | IC50 (TGF-β receptor) [µM] | Treg suppression (Foxp3 expression, number of Foxp3+ cells) [1] | Treg suppression (Foxp3 expression, number of Foxp3+ cells) ([1]; listed as Galunisertib) | expansion of cytotoxic T cells [2] | toxicity ([2]; lower Treg expansion, reduced pulmonary edema) | antitumor responses ([2]; in vivo)
1 | Cc1cccc(-c2[nH]c(C(C)(C)C)nc2-c2ccc3c(c2)OCO3)n1 [SB505124] | 0.129 | – | – | – | – | –
2 | Cc1cccc(-c2nn3c(c2-c2ccnc4ccc(C(N)=O)cc24)CCC3)n1 [galunisertib] | 0.056 | stronger Treg suppression | higher degree of Tregs suppression | – | – | –
3 | IL-2 superkine: artificial variant of IL-2 containing mutations L80F/R81D/L85V/I86V/I92F (SEQ ID NO: 3) (protein) MGEFAPTSSSTKKTQLQLEHLLLDLQMILNGINNYKNPKLTRMLTFKFYMPKKATELKHLQCLEEELKPLEEVLNLAQSKNFHFDPRDVVSNINVFVLELKGSETTFMCEYADETATIVEFLNRWITFCQSIISTLTH | – | – | – | superior expansion | proportionally less toxicity | improved antitumor responses
